Patent US7598244B2, “[1,2,4]triazolo[1,5,a]pyrimidin-2-ylurea derivative and use thereof” (Nippon Kayaku Kabushiki Kaisha, priority 2003, dated 2009)

tested on: MHC class I molecules of T1 cells (human lymphoma cell line 174×CEM.); experiment: Effect on expression of MHC class I from T1 cells (flow cytometry, MFI); assay type: cell-based; details: 3 days culture
Protocol: Effect on Expression of MHC Class I from T1 Cells (Human Lymphoma Cell Line 174×CEM.)
Using a 96-well flat bottom microplate, T1 cells (5.7×10^3 cells/200 μl/well) were cultured in an RPMI 1640 medium (Iwaki Glass) containing 10% fetal bovine serum (hereinafter abbreviated as FBS; Iruvine Scientific) in an incubator containing 5% carbon dioxide at 37° C. for 3 days, in the presence of a test compound having each concentration obtained by dilution at a common ratio route of 10 from 400 μM. After completion of the culture, the cells were stained with fluoroisothiocyanate-labeled mouse anti-human MHC class I monoclonal antibody (an antibody produced from the cell line W6/32 (ATCC No. CRL 1991)). The mean fluorescence intensity of the stained cells (hereinafter referred to as MFI) was measured using flow cytometry FACScan (BD). The obtained value was defined as an expression level of MHC class I molecules. A test compound concentration necessary for suppressing 20% of the expression level of MHC class I molecules (EC20 value) was calculated using the following formula (1).
[formula] • Eexp: MFI of cultured cells containing test compound after being stained with antibody • Cexp: MFI of cultured cells containing no test compounds after being stained with antibody

Compared with CCC(C)NC(=O)Nc1nc2nccc(-c3ccc(OC)cc3)n2n1 (stereo not shown) [Example 100], CCC(CC)NC(=O)Nc1nc2nccc(-c3ccc(OC)cc3)n2n1 [Example 128] is 1.7-fold higher in “EC20 (concentration necessary for suppressing 20% of the expression level of MHC class I molecules)” value: 320 nM for the first, 540 nM for the second.

Going from COc1ccc(-c2ccnc3nc(NC(=O)NCCCc4ccccc4)nn23)cc1 [Example 102] to COc1ccc(-c2ccnc3nc(NC(=O)N[C@@H](C)CCc4ccccc4)nn23)cc1 [Example 127], the “EC20 (concentration necessary for suppressing 20% of the expression level of MHC class I molecules)” value falls from 190 nM to 80 nM (2.4-fold).

COc1ccc(-c2ccnc3nc(NC(=O)NCc4ccncc4)nn23)cc1 [Example 103] and COc1ccc(-c2ccnc3nc(NC(=O)NCCc4cccnc4)nn23)cc1 [Example 104] are within 1.5-fold of each other in “EC20 (concentration necessary for suppressing 20% of the expression level of MHC class I molecules)” value: 620 nM for the first, 430 nM for the second.

Compared with COCCCNC(=O)Nc1nc2nccc(-c3ccc(OC)cc3)n2n1 [Example 106], COc1ccc(-c2ccnc3nc(NC(=O)NCCC(=O)OC(C)(C)C)nn23)cc1 [Example 109] is 4.6-fold lower in “EC20 (concentration necessary for suppressing 20% of the expression level of MHC class I molecules)” value: 510 nM for the first, 110 nM for the second.

Going from CC(C)COc1cccc(-c2ccnc3nc(NC(=O)NC4CCCCC4)nn23)c1 [Example 108] to O=C(Nc1nc2nccc(-c3cccc(OCc4ccccc4)c3)n2n1)NC1CCCCC1 [Example 115], the “EC20 (concentration necessary for suppressing 20% of the expression level of MHC class I molecules)” value rises from 130 nM to 600 nM (4.6-fold).

Going from COc1ccc(-c2ccnc3nc(NC(=O)NCC(=O)OC(C)(C)C)nn23)cc1 [Example 110] to COC(=O)[C@@H](C)NC(=O)Nc1nc2nccc(-c3ccc(OC)cc3)n2n1 [Example 126], the “EC20 (concentration necessary for suppressing 20% of the expression level of MHC class I molecules)” value falls from 790 nM to 320 nM (2.5-fold).

Going from COc1ccc(-c2ccnc3nc(NC(=O)N[C@@H](Cc4ccccc4)C(=O)OC(C)(C)C)nn23)cc1 [Example 112] to COc1ccc(-c2ccnc3nc(NC(=O)N[C@@H](C)C(=O)NCc4ccccc4)nn23)cc1 [Example 119], the “EC20 (concentration necessary for suppressing 20% of the expression level of MHC class I molecules)” value falls from 850 nM to 210 nM (4-fold).

Compared with COc1ccc(-c2ccnc3nc(NC(=O)N[C@H](C(=O)NCCc4ccncc4)C(C)C)nn23)cc1 [Example 116], COc1ccc(-c2ccnc3nc(NC(=O)N[C@@H](C)C(=O)NCc4ccccn4)nn23)cc1 [Example 124] is 2.7-fold lower in “EC20 (concentration necessary for suppressing 20% of the expression level of MHC class I molecules)” value: 570 nM for the first, 210 nM for the second.

COc1ccc(-c2ccnc3nc(NC(=O)N[C@@H](C)C(=O)Nc4ccccc4)nn23)cc1 [Example 117] and CC[C@H](NC(=O)Nc1nc2nccc(-c3ccc(OC)cc3)n2n1)C(=O)Nc1ccccc1 [Example 148] are within 1.5-fold of each other in “EC20 (concentration necessary for suppressing 20% of the expression level of MHC class I molecules)” value: 190 nM for the first, 260 nM for the second.

COc1ccc(-c2ccnc3nc(NC(=O)N[C@@H](C)C(=O)N4CCOCC4)nn23)cc1 [Example 118] and CC[C@H](NC(=O)Nc1nc2nccc(-c3ccc(OC)cc3)n2n1)C(=O)N1CCOCC1 [Example 149] are within 1.5-fold of each other in “EC20 (concentration necessary for suppressing 20% of the expression level of MHC class I molecules)” value: 610 nM for the first, 630 nM for the second.

COc1ccc(-c2ccnc3nc(NC(=O)N[C@@H](C)C(=O)NC4CCCCC4)nn23)cc1 [Example 120] and COc1ccc(-c2ccnc3nc(NC(=O)N[C@@H](C)C(=O)NCC4CCCCC4)nn23)cc1 [Example 121] are within 1.5-fold of each other in “EC20 (concentration necessary for suppressing 20% of the expression level of MHC class I molecules)” value: 250 nM for the first, 170 nM for the second.

First: COC(=O)[C@H](C)NC(=O)[C@H](C)NC(=O)Nc1nc2nccc(-c3ccc(OC)cc3)n2n1 [Example 122]
Second: CC[C@H](NC(=O)Nc1nc2nccc(-c3ccc(OC)cc3)n2n1)C(=O)NC(C)C(=O)OC (stereo partly shown) [Example 150]
The “EC20 (concentration necessary for suppressing 20% of the expression level of MHC class I molecules)” value of the first is 2.1-fold lower: 340 nM for the first, 710 nM for the second.

First: COc1ccc(-c2ccnc3nc(NC(=O)N[C@@H](C)C(=O)N4CCN(C)CC4)nn23)cc1 [Example 123]
Second: COc1ccc(-c2ccnc3nc(NC(=O)N[C@@H](C)C(=O)NCCN4CCCCC4)nn23)cc1.Cl [Example 125]
The “EC20 (concentration necessary for suppressing 20% of the expression level of MHC class I molecules)” value of the first is 1.7-fold lower: 480 nM for the first, 820 nM for the second.

COc1ccc(-c2ccnc3nc(NC(=O)N[C@@H](C)c4ccc(Br)cc4)nn23)cc1 [Example 129] and COc1ccc(-c2ccnc3nc(NC(=O)N[C@@H](C)c4ccc(OC)cc4)nn23)cc1 [Example 133] are within 1.5-fold of each other in “EC20 (concentration necessary for suppressing 20% of the expression level of MHC class I molecules)” value: 180 nM for the first, 190 nM for the second.

First: CC[C@H](NC(=O)Nc1nc2nccc(-c3ccc(OC)cc3)n2n1)c1ccccc1 [Example 130]
Second: CCC[C@H](NC(=O)Nc1nc2nccc(-c3ccc(OC)cc3)n2n1)C(=O)Nc1ccccc1 [Example 151]
The “EC20 (concentration necessary for suppressing 20% of the expression level of MHC class I molecules)” value of the first is 1.7-fold lower: 130 nM for the first, 220 nM for the second.

First: COc1ccc(-c2ccnc3nc(NC(=O)N[C@H]4CCCc5ccccc54)nn23)cc1 [Example 134]
Second: COc1ccc(-c2ccnc3nc(NC(=O)NCC(=O)Nc4ccccc4)nn23)cc1 [Example 144]
The “EC20 (concentration necessary for suppressing 20% of the expression level of MHC class I molecules)” value of the first is 9.2-fold lower: 50 nM for the first, 460 nM for the second.

CCOC(=O)N1CCC(NC(=O)Nc2nc3nccc(-c4ccc(OC)cc4)n3n2)CC1 [Example 138] and COC(=O)C1CCC(NC(=O)Nc2nc3nccc(-c4ccc(OC)cc4)n3n2)CC1 (stereo not shown) [Example 167] are within 1.5-fold of each other in “EC20 (concentration necessary for suppressing 20% of the expression level of MHC class I molecules)” value: 150 nM for the first, 200 nM for the second.

Going from COc1ccc(-c2ccnc3nc(NC(=O)N[C@@H](C)c4ccc([N+](=O)[O-])cc4)nn23)cc1 [Example 139] to COc1ccc([C@H](C)NC(=O)Nc2nc3nccc(-c4cccc(OC)c4)n3n2)cc1 [Example 186], the “EC20 (concentration necessary for suppressing 20% of the expression level of MHC class I molecules)” value rises from 130 nM to 440 nM (3.4-fold).

COc1ccc(-c2ccnc3nc(NC(=O)NC4C5CC6CC(C5)CC4C6)nn23)cc1 (stereo not shown) [Example 143] and COC(=O)C1CCCC(NC(=O)Nc2nc3nccc(-c4ccc(OC)cc4)n3n2)C1 (stereo not shown) [Example 168] are within 1.5-fold of each other in “EC20 (concentration necessary for suppressing 20% of the expression level of MHC class I molecules)” value: 740 nM for the first, 670 nM for the second.

CCC[C@H](NC(=O)Nc1nc2nccc(-c3ccc(OC)cc3)n2n1)C(=O)N1CCOCC1 [Example 152] and CC(C)NC(=O)Nc1nc2nccc(-c3cccc(OCCN4CCOCC4)c3)n2n1 [Example 189] are within 1.5-fold of each other in “EC20 (concentration necessary for suppressing 20% of the expression level of MHC class I molecules)” value: 780 nM for the first, 590 nM for the second.

First: COc1ccc(-c2ccnc3nc(NC(=O)NCCC(=O)Nc4ccccc4)nn23)cc1 [Example 156]
Second: CC(C)NC(=O)Nc1nc2nccc(-c3cccc(OCCc4ccccc4)c3)n2n1 [Example 180]
The “EC20 (concentration necessary for suppressing 20% of the expression level of MHC class I molecules)” value of the first is 7-fold lower: 50 nM for the first, 350 nM for the second.

C[C@H](NC(=O)Nc1nc2nccc(-c3cccs3)n2n1)c1ccccc1 [Example 165] and C[C@H](NC(=O)Nc1nc2nccc(-c3cccs3)n2n1)c1ccc(O)cc1 [Example 182] are within 1.5-fold of each other in “EC20 (concentration necessary for suppressing 20% of the expression level of MHC class I molecules)” value: 300 nM for the first, 280 nM for the second.

Compared with COc1ccc(-c2ccnc3nc(NC(=O)NC4CCC(C(=O)N(C)C)CC4)nn23)cc1 (stereo not shown) [Example 169], COc1ccc(-c2ccnc3nc(NC(=O)NC4CCCC(C(=O)N(C)C)C4)nn23)cc1 (stereo not shown) [Example 175] is 2.2-fold lower in “EC20 (concentration necessary for suppressing 20% of the expression level of MHC class I molecules)” value: 660 nM for the first, 300 nM for the second.

O=C(Nc1nc2nccc(-c3cccc(OCc4cccnc4)c3)n2n1)NC1CCCCC1 [Example 170] and O=C(Nc1nc2nccc(-c3cccc(OCc4ccncc4)c3)n2n1)NC1CCCCC1 [Example 171] are within 1.5-fold of each other in “EC20 (concentration necessary for suppressing 20% of the expression level of MHC class I molecules)” value: 250 nM for the first, 290 nM for the second.

First: CC(C)COc1cccc(-c2ccnc3nc(NC(=O)NC(C)C)nn23)c1 [Example 172]
Second: CC(C)NC(=O)Nc1nc2nccc(-c3cccc(OCCCN(C)C)c3)n2n1 [Example 192]
The “EC20 (concentration necessary for suppressing 20% of the expression level of MHC class I molecules)” value of the first is 3.8-fold lower: 240 nM for the first, 900 nM for the second.

First: CNC(=O)C1CCCC(NC(=O)Nc2nc3nccc(-c4ccc(OC)cc4)n3n2)C1 (stereo not shown) [Example 174]
Second: COc1ccc([C@H](C)NC(=O)Nc2nc3nccc(-c4cccs4)n3n2)cc1 [Example 176]
The “EC20 (concentration necessary for suppressing 20% of the expression level of MHC class I molecules)” value of the first is 1.6-fold higher: 330 nM for the first, 200 nM for the second.

COc1cccc([C@H](C)NC(=O)Nc2nc3nccc(-c4cccs4)n3n2)c1 [Example 181] and CC(C)NC(=O)Nc1nc2nccc(-c3cccc(OCc4ccccn4)c3)n2n1 [Example 185] are within 1.5-fold of each other in “EC20 (concentration necessary for suppressing 20% of the expression level of MHC class I molecules)” value: 430 nM for the first, 350 nM for the second.

In the case of COc1cccc(-c2ccnc3nc(NC(=O)N[C@@H](C)CCCC(C)C)nn23)c1 [Example 188], the “EC20 (concentration necessary for suppressing 20% of the expression level of MHC class I molecules)” value is reported as 80 nM.
